Results from ChEMBL document CHEMBL1208757, “Furan based cyclic homo-oligopeptides bind G-quadruplex selectively and repress c-MYC transcription” (Bioorg Med Chem Lett, 2010).
Activity calls are given as the source filed them. No cut-off for these calls is given here.

Assays:
Nucleic Acid [1] = test: Binding affinity to 22 mer c-MYC DNA G-quadruplex assessed as change in melting temperature at 1.2 uM by FRET assay; type: nucleic-acid assay
HeLa [2] = test: Downregulation of c-MYC gene expression in human HeLa cell line at 200 uM after 24 hrs by RT-PCR analysis; type: functional
Nucleic Acid [3] = test: Binding affinity to 22 mer c-MYC DNA G-quadruplex assessed as change in melting temperature at 0.2 uM by FRET assay; type: nucleic-acid assay
Nucleic Acid [4] = test: Binding affinity to 22 mer c-MYC DNA G-quadruplex assessed as induction of quadruplex folding at 5 to 10 uM by CD spectroscopy; type: nucleic-acid assay
HeLa [5] = test: Cytotoxicity against human HeLa cells at 100 uM after 5 days by propidium iodide staining-based flow cytometry; type: functional, cell-based
Nucleic Acid [6] = test: Binding affinity to 22 mer c-MYC DNA G-quadruplex assessed as change in melting temperature at 0.8 uM by FRET assay; type: nucleic-acid assay
Calf thymus DNA = test: Binding affinity to calf thymus DNA assessed as change in melting temperature at 0.2 to 1.6 uM by […]; type: nucleic-acid assay; conditions: Bos taurus
HeLa [7] = test: Induction of apoptosis in human HeLa cell line at 200 uM after 24 hrs by annexin V/conjugated 7-AAD nexin assay; type: functional
Nucleic Acid [8] = test: Binding affinity to 22 mer c-MYC G-quadruplex by isothermal titration calorimetry; type: nucleic-acid assay
Nucleic Acid [9] = test: Binding affinity to 22 mer c-MYC DNA G-quadruplex assessed as change in melting temperature at 0.4 uM by FRET assay; type: nucleic-acid assay
Nucleic Acid [10] = test: Binding affinity to 22 mer c-MYC G-quadruplex assessed as effect on ligand-telomeric complex formation by […]; type: nucleic-acid assay
HeLa [11] = test: Downregulation of c-MYC gene expression in human HeLa cell line at 100 uM after 24 hrs by RT-PCR analysis; type: functional

SMILES	Tm (Nucleic Acid [1]) [°C]	inhibition at 200 µM (HeLa [2]) [%]	Tm (Nucleic Acid [3]) [°C]	Activity (Nucleic Acid [4])	Activity (HeLa [5])	Tm (Nucleic Acid [6]) [°C]	Activity (Calf thymus DNA)	Activity (HeLa [7]) [%]	K (Nucleic Acid [8]) [×10⁵ /M]	Tm (Nucleic Acid [9]) [°C]	Kd (Nucleic Acid [10]) [nM]	inhibition at 100 µM (HeLa [11]) [%]
NCC1=C2CNC(=O)C3=CC(CN)=C(CNC(=O)c4cc(CN)c(o4)CNC(=O)C(=C1)O2)O3.O=C(O)C(F)(F)F.O=C(O)C(F)(F)F.O=C(O)C(F)(F)F	8	50	2	Active	inactive	6	inactive	18	3.21	4	1200	
NCCC(=O)NCC1=C2CNC(=O)C3=CC(CNC(=O)CCN)=C(CNC(=O)c4cc(CNC(=O)CCN)c(o4)CNC(=O)C(=C1)O2)O3.O=C(O)C(F)(F)F.O=C(O)C(F)(F)F.O=C(O)C(F)(F)F	20		5	Active	inactive	15	inactive	22	5.7	12	2100	50
